Measured values published in ChEMBL document CHEMBL5046311, “Photoaffinity Probe Reveals the Potential Target of Harringtonolide for Cancer Cell Migration Inhibition” (ACS Med Chem Lett, 2022).
Activity calls are given as the source filed them. The calls are words filed in the database; no cut-off is given here.

Assays:
[1] = test system: A-375; experiment: Antiproliferative activity against human A-375 cells assessed as reduction in cell viability at 1.5625 to 50 uM after 24 hrs by MTT assay; assay type: functional, cell-based; details: dose 1.5625-50 µM
[2] = Stability of the compound in DMEM medium with 10% fetal bovine serum assessed as parent compound remaining at 200 uM incubated upto 24 hrs by HLPC analysis; assay type: ADME, cell-free; details: cattle, read-out: Stability
[3] = test system: A-375; experiment: Inhibition of cell invasion in human A-375 cells at measured after 24 hrs by crystal violet staining based imaging analysis; assay type: functional; details: dose 0.5-2 µM
[4] = test system: A-375; experiment: Inhibition of cell migration in human A-375 cells at measured after 24 hrs by phase contrast microscopy based wound healing assay; assay type: functional; details: dose 0.5-2 µM
[5] = test system: A-375; experiment: Binding affinity to RACK1 in human A-375 cells at 10 uM preincubated for 4 hrs in the presence of harringtonolide followed by irradiation with UV for 30 mins measured by Western blotting based pull-down assay; assay type: cell-based; details: time 4.5 hrs
[6] = Drug degradation in DMEM medium with 10% fetal bovine serum assessed as compound hydrolysis at 200 uM incubated upto 24 hrs by HLPC analysis; assay type: ADME, cell-free; details: cattle, read-out: Drug degradation
[7] = test system: A-375; experiment: Binding affinity to RACK1 in human A-375 cells at 10 uM preincubated for 4 hrs followed by irradiation with UV for 30 mins measured by Western blotting based pull-down assay; assay type: cell-based; details: time 4.5 hrs
[8] = test system: A-375; experiment: Antiproliferative activity against human A-375 cells assessed as reduction in cell viability upto 50 uM after 24 hrs by MTT assay; assay type: functional, cell-based; details: dose microM <=50, time 24.0 hrs
[9] = molecular target: Signal transducer and activator of transcription 3 (Homo sapiens) (UniProt P40763); experiment: Inhibition of STAT3 in human A-375 cells assessed as decrease in c-Myc protein level at 0.5 to 4 uM measured after 24 hrs by western blot analysis; assay type: cell-based; details: dose 0.5-4 µM
Chain of Signal transducer and activator of transcription 3 (Homo sapiens) (P40763 whole entry): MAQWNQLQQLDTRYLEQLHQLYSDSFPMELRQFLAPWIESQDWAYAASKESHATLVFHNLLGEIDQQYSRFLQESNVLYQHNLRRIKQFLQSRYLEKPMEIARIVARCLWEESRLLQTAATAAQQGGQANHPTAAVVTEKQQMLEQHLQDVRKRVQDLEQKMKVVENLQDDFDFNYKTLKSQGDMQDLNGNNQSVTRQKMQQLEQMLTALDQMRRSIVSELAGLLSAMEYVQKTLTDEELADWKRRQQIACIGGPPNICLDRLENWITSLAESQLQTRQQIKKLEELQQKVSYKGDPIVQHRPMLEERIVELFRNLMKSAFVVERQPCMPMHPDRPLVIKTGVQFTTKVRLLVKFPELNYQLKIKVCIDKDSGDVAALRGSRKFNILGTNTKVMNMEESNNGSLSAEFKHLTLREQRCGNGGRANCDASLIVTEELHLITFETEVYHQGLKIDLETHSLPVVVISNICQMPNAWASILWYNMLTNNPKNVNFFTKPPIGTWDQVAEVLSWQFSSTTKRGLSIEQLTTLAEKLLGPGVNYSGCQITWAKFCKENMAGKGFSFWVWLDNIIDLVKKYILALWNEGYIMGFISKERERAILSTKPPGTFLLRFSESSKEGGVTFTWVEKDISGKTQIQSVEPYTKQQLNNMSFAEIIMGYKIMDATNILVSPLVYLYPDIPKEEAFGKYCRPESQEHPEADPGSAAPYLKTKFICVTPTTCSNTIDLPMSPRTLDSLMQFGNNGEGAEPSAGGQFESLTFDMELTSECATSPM

[10] = molecular target: Signal transducer and activator of transcription 3 (Homo sapiens) (UniProt P40763); experiment: Inhibition of STAT3 in human A-375 cells assessed as decrease in Bcl2 protein level at 0.5 to 4 uM measured after 24 hrs by western blot analysis; assay type: cell-based; details: dose 0.5-4 µM
[11] = molecular target: Focal adhesion kinase 1 (Homo sapiens) (UniProt Q05397); experiment: Inhibition of FAK in human A-375 cells assessed as reduction in STAT3 activation at 0.5 to 4 uM measured after 24 hrs by Western blotting analysis; assay type: cell-based; details: dose 0.5-4 µM
Chain of Focal adhesion kinase 1 (Homo sapiens) (Q05397 2-1052 limits assumed): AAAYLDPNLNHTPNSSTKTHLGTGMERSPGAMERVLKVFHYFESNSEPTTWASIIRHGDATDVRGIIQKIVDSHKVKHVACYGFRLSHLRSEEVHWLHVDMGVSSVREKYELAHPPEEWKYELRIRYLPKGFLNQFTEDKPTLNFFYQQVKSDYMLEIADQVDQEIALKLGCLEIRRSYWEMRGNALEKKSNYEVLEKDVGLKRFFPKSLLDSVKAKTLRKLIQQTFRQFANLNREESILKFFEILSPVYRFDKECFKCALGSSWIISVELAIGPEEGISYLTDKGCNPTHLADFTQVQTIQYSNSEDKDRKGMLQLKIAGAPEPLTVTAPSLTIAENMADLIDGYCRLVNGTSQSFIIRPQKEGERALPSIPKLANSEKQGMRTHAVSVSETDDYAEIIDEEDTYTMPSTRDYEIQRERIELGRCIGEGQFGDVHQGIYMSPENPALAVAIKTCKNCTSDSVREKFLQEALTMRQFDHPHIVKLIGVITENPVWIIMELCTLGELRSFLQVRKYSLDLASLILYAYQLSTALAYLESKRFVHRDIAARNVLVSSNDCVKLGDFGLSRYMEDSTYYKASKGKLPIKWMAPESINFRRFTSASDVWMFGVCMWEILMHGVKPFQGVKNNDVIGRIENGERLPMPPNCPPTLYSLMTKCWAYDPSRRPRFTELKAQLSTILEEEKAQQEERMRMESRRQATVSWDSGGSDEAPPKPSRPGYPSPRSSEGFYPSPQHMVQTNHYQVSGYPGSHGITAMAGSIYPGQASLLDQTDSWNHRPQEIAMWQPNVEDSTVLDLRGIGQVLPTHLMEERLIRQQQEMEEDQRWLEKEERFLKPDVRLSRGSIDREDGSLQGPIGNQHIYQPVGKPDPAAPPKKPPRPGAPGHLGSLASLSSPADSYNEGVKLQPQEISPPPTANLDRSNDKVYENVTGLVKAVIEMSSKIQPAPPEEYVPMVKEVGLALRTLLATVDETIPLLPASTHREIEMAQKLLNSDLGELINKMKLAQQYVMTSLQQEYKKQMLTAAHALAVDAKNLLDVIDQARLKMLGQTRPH

[12] = test system: A-375; experiment: Antiproliferative activity against human A-375 cells assessed as reduction in cell viability after 24 hrs by MTT assay; assay type: functional, cell-based; details: A-375, 24 h
[13] = test system: A-375; experiment: Inhibition of RACK1-FAK protein-protein interaction in human A-375 cells measured after 24 hrs by co-immunoprecipitation assay; assay type: cell-based; details: dose 2-4 µM
[14] = molecular target: Focal adhesion kinase 1 (Homo sapiens) (UniProt Q05397); experiment: Inhibition of FAK in human A-375 cells assessed as reduction in Src activation at 0.5 to 4 uM measured after 24 hrs by Western blotting analysis; assay type: cell-based; details: dose 0.5-4 µM
[15] = test system: A-375; experiment: Binding affinity to RACK1 in human A-375 cells assessed as prevention of pronase-mediated protein degradation at 5 to 20 uM preincubated for 60 mins followed by enzyme addition and measured after 25 mins by immunoblotting based DARTS assay; assay type: cell-based; details: dose 5-20 µM, time 85.0 min
[16] = molecular target: Focal adhesion kinase 1 (Homo sapiens) (UniProt Q05397); experiment: Inhibition of FAK phosphorylation in human A-375 cells measured after 24 hrs by Western blotting analysis; assay type: cell-based; details: dose 0.5-4 µM
[17] = test system: A-375; experiment: Binding affinity to RACK1 in human A-375 cells assessed as prevention of temperature dependent protein degradation at 10 uM preincubated for 60 mins at room temperature followed by heat treatment at 45 to 63 degree C for 5 mins measured by immunoblotting based cellular thermal shift assay; assay type: cell-based
[18] = test system: A-375; experiment: Inhibition of epithelial-mesenchymal transition in human A-375 cells assessed as downregulation of N-cadherin expression at 0.5 to 4 uM measured after 24 hrs by Western blotting analysis; assay type: functional, cell-based; details: dose 0.5-4 µM
[19] = test system: A-375; experiment: Inhibition of epithelial-mesenchymal transition in human A-375 cells assessed as downregulation of Snail expression at 0.5 to 4 uM measured after 24 hrs by Western blotting analysis; assay type: functional, cell-based; details: dose 0.5-4 µM
[20] = test system: A-375; experiment: Inhibition of epithelial-mesenchymal transition in human A-375 cells assessed as upregulation of E-cadherin expression at 0.5 to 4 uM measured after 24 hrs by Western blotting analysis; assay type: functional, cell-based; details: dose 0.5-4 µM

Q: For `Cc1cc(=O)cc2c3c1[C@@H]1O[C@H]4[C@@H]5OC(=O)[C@](C[C@@H]2OC(=O)COCCOCCNC(=O)CCCC[C@@H]2SC[C@@H]6NC(=O)N[C@@H]62)([C@@H]4C)[C@H]3[C@@H]51`, which Activity [1] is on record?
A: Active

Q: And the remaining at 24 h, 200 µM [2]?
A: 59.2%

Q: Which inhibition [3] does the source give for `C#CCCC1(CCC(=O)O[C@H]2C[C@]34C(=O)O[C@H]5[C@H](O[C@H]6c7c(C)cc(=O)cc2c7[C@@H]3[C@@H]56)[C@H]4C)N=N1` here?
A: Dose-Dependent Effect

Q: What about the Activity [1] of the same compound?
A: Active

Q: What about the inhibition [4] of the same compound?
A: Dose-Dependent Effect

Q: What about the Activity [5] of the same compound?
A: inactive

Q: And the degraded at 24 h, 200 µM [6]?
A: 13.6%

Q: What about the Activity [7] of the same compound?
A: Active

Q: Which Activity [8] does the source give for `Cc1cc(=O)cc2c3c1[C@@H]1O[C@H]4[C@@H]5OC(=O)[C@](C[C@@H]2OC(=O)COCCOCCOCCOCCNC(=O)CCCC[C@@H]2SC[C@@H]6NC(=O)N[C@@H]62)([C@@H]4C)[C@H]3[C@@H]51` here?
A: inactive

Q: For `Cc1cc(=O)cc2c3c1[C@@H]1O[C@H]4[C@@H]5OC(=O)[C@](CC2)([C@@H]4C)[C@H]3[C@@H]51` [HAINANOLIDE], which inhibition [9] is on record?
A: Active

Q: What about the inhibition [3] of the same compound?
A: Dose-Dependent Effect

Q: And the inhibition [10]?
A: Active

Q: What about the inhibition [11] of the same compound?
A: Active

Q: And the inhibition [4]?
A: Dose-Dependent Effect

Q: What about the IC50 [12] of the same compound?
A: 39.7 µM

Q: And the inhibition [13]?
A: Dose-Dependent Effect

Q: And the inhibition [14]?
A: Active

Q: What about the Activity [15] of the same compound?
A: Active

Q: And the inhibition [16]?
A: Dose-Dependent Effect

Q: And the Activity [17]?
A: Active

Q: And the inhibition [18]?
A: Active

Q: What about the inhibition [19] of the same compound?
A: Active

Q: And the inhibition [20]?
A: Active
